Reference: US11390616B2 (BRISTOL-MYERS SQUIBB COMPANY, priority 2015, dated 2022)

These molecules were tested against T1, human APJ receptor (Homo sapiens, UniProt P35414) (assay: Intracellular cAMP accumulation assay (APJ hcAMP, HTRF)). Conditions: HEK293 cells stably expressing human APJ receptor; inhibition of forskolin-mediated cAMP production; read-out: APJ cAMP Potency range.
T1 construct: expressed in transfected cells; host or cells: HEK293
T1 sequence (P35414 1-380): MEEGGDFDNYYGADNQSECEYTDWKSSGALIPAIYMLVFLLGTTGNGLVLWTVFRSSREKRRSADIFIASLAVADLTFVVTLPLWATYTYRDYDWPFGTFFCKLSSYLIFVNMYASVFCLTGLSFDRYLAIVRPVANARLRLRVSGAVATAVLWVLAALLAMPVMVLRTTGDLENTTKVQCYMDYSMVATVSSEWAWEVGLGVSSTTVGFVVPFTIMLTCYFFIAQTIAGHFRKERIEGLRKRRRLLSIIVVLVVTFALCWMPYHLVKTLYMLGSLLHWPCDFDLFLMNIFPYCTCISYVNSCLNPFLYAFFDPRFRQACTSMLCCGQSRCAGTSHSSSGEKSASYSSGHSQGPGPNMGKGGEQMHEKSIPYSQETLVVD
Type: cell-based
Procedure: Intracellular cAMP Accumulation Assay
HEK293 cells stably expressing human APJ receptor were used to assess the activity of compounds. Cultured cells were detached and resuspended in the cAMP Homogeneous Time-Resolved Fluorescence (HTRF) assay buffer (Cisbio cat; #62AM4PEJ). The assay was performed in 384-well assay plates (Perkin-Elmer; cat #6008289) according to assay protocol provided by the manufacturer. Serial dilutions of a compound together with assay buffer containing […] IBMX and 2 μM forskolin were added to each well containing 5,000 cells and incubated for 30 minutes at room temperature. Subsequently, cAMP D2 reagent was added in the lysis buffer followed by the EuK antibody (Cisbio; cat #62AM4PEJ) and incubated for 60 min. The fluorescence emission ratio was measured using fluorometer. The intracellular cAMP concentrations (compound-stimulated inhibition of forskolin-mediated cAMP production) were calculated by extrapolation from a standard curve using known cAMP concentrations. The EC50 values were obtained by fitting the data to a sigmoidal concentration-response curve with variable slope. The maximal achievable inhibition of forskolin-induced cAMP levels (Ymax) for each compound was expressed as relative percentage of inhibition attained using pyroglutamated apelin-13 ((Pyr1)apelin-13) peptide, which was set to 100%.
The examples disclosed below were tested in the APJ in vitro assays described above and were found having human APJ cyclic AMP (hcAMP) activity. The EC50 value of each compound is presented at the end of the example description.
The biological activity of the exemplified compounds of this invention determined by the assay described above is shown at the end of each example.

Compound | EC50 [nM]
CCCCc1nc(O)c(Cc2ccc(-c3ccc(OC)cc3)nc2)c(=O)n1-c1c(OC)cccc1OC [Example 29, 2-butyl-3-(2,6-dimethoxyphenyl)-6-hydroxy-5-{[6-(4-methoxyphenyl)pyridin-3-yl]methyl}-3,4-dihydropyrimidin-4-one] | 0.01 to 10
CCCCc1nc(O)c(Cc2cnn(Cc3ccccc3)c2)c(=O)n1-c1c(OC)cccc1OC [Example 30, 5-[(1-benzyl-1H-pyrazol-4-yl)methyl]-2-butyl-3-(2,6-dimethoxyphenyl)-6-hydroxy-3,4-dihydropyrimidin-4-one] | 0.01 to 10
CCOCc1nc(O)c(Cc2ccn(-c3ccc(Cl)cc3)n2)c(=O)n1-c1c(OC)cccc1OC [Example 31, 5-{[1-(4-chlorophenyl)-1H-pyrazol-3-yl]methyl}-3-(2,6-dimethoxyphenyl)-2-(ethoxymethyl)-6-hydroxy-3,4-dihydropyrimidin-4-one] | 10 to 100
CCOCc1nc(O)c(Cc2ccc(-c3ncon3)cc2)c(=O)n1-c1c(OC)cccc1OC [Example 32, 3-(2,6-dimethoxyphenyl)-2-(ethoxymethyl)-6-hydroxy-5-{[4-(1,2,4-oxadiazol-3-yl)phenyl]methyl}-3,4-dihydropyrimidin-4-one] | 10 to 100
CCOCc1nc(O)c(Cc2coc(-c3ccc(Cl)cc3)n2)c(=O)n1-c1c(OC)cccc1OC [Example 33, 5-{[2-(4-chlorophenyl)-1,3-oxazol-4-yl]methyl}-3-(2,6-dimethoxyphenyl)-2-(ethoxymethyl)-6-hydroxy-3,4-dihydropyrimidin-4-one] | 10 to 100
COc1cccc(OC)c1-n1c(CCC(C)C)nc(O)c(Cc2ccc(-n3ccccc3=O)cc2)c1=O [Example 34, 3-(2,6-dimethoxyphenyl)-6-hydroxy-2-(3-methylbutyl)-5-{[4-(2-oxo-1,2-dihydropyridin-1-yl)phenyl]methyl}-3,4-dihydropyrimidin-4-one] | 0.01 to 10
CCCCc1nc(O)c(Cc2ccc(N3CCCCC3=O)cc2)c(=O)n1-c1c(OC)cccc1OC [Example 35, 2-butyl-3-(2,6-dimethoxyphenyl)-6-hydroxy-5-{[4-(2-oxopiperidin-1-yl)phenyl]methyl}-3,4-dihydropyrimidin-4-one] | 0.01 to 10
CCCCc1nc(O)c(Cc2ccc(N3CCOCC3)cc2)c(=O)n1-c1c(OC)cccc1OC [Example 36, 2-butyl-3-(2,6-dimethoxyphenyl)-6-hydroxy-5-{[4-(morpholin-4-yl)phenyl]methyl}-3,4-dihydropyrimidin-4-one] | 0.01 to 10
COc1cccc(OC)c1-n1c(C2CCCC2)nc(O)c(Cc2ccc(-n3ccccc3=O)cc2)c1=O [Example 38, 2-cyclopentyl-3-(2,6-dimethoxyphenyl)-6-hydroxy-5-{[4-(2-oxo-1,2-dihydropyridin-1-yl)phenyl]methyl}-3,4-dihydropyrimidin-4-one] | 0.01 to 10
COc1cccc(OC)c1-n1c(COC2CCC2)nc(O)c(Cc2ccc(-n3ccccc3=O)cc2)c1=O [Example 39, 2-(cyclobutoxymethyl)-3-(2,6-dimethoxyphenyl)-6-hydroxy-5-{[4-(2-oxo-1,2-dihydropyridin-1-yl)phenyl]methyl}-3,4-dihydropyrimidin-4-one] | 0.01 to 10
COc1cccc(OC)c1-n1c(COC2CC2)nc(O)c(Cc2ccc(-n3ccccc3=O)cc2)c1=O [Example 40, 2-(cyclopropoxymethyl)-3-(2,6-dimethoxyphenyl)-6-hydroxy-5-{[4-(2-oxo-1,2-dihydropyridin-1-yl)phenyl]methyl}-3,4-dihydropyrimidin-4-one] | 0.01 to 10
COc1cccc(OC)c1-n1c(CCC2CC2)nc(O)c(Cc2ccc(-n3ccccc3=O)cc2)c1=O [Example 41, 2-(2-cyclopropylethyl)-3-(2,6-dimethoxyphenyl)-6-hydroxy-5-{[4-(2-oxo-1,2-dihydropyridin-1-yl)phenyl]methyl}-3,4-dihydropyrimidin-4-one] | 0.01 to 10
CCCCc1nc(O)c(Cc2ccc(-n3ccc(Cl)cc3=O)cc2)c(=O)n1-c1c(OC)cccc1OC [Example 42, 2-butyl-5-{[4-(4-chloro-2-oxo-1,2-dihydropyridin-1-yl)phenyl]methyl}-3-(2,6-dimethoxyphenyl)-6-hydroxy-3,4-dihydropyrimidin-4-one] | 0.01 to 10
CCCCc1nc(O)c(Cc2ccc(-n3ccc(C)cc3=O)cc2)c(=O)n1-c1c(OC)cccc1OC [Example 43, 2-butyl-3-(2,6-dimethoxyphenyl)-6-hydroxy-5-{[4-(4-methyl-2-oxo-1,2-dihydropyridin-1-yl)phenyl]methyl}-3,4-dihydropyrimidin-4-one] | 0.01 to 10
CCCCc1nc(O)c(Cc2ccc(-c3ccc(C)nc3)cc2)c(=O)n1-c1c(OC)cccc1OC [Example 44, 2-butyl-3-(2,6-dimethoxyphenyl)-6-hydroxy-5-{[4-(6-methylpyridin-3-yl)phenyl]methyl}-3,4-dihydropyrimidin-4-one] | 10 to 100
CCCCc1nc(O)c(Cc2ccc(-c3ccccc3)cc2)c(=O)n1-c1c(OC)cccc1OC [Example 45, 5-({[1,1′-biphenyl]-4-yl}methyl)-2-butyl-3-(2,6-dimethoxyphenyl)-6-hydroxy-3,4-dihydropyrimidin-4-one] | 0.01 to 10
CCCCc1nc(O)c(Cc2ccc(-c3ccc(Cl)cn3)cc2)c(=O)n1-c1c(OC)cccc1OC [Example 46, 2-butyl-5-{[4-(5-chloropyridin-2-yl)phenyl]methyl}-3-(2,6-dimethoxyphenyl)-6-hydroxy-3,4-dihydropyrimidin-4-one] | 0.01 to 10
CCCCc1nc(O)c(Cc2ccc(-n3cc(F)ccc3=O)cc2)c(=O)n1-c1c(OC)cccc1OC [Example 47, 2-butyl-3-(2,6-dimethoxyphenyl)-5-{[4-(5-fluoro-2-oxo-1,2-dihydropyridin-1-yl)phenyl]methyl}-6-hydroxy-3,4-dihydropyrimidin-4-one] | 0.01 to 10
CCCCc1nc(O)c(Cc2ccc(-c3cccnc3OC)cc2)c(=O)n1-c1c(OC)cccc1OC [Example 48, 2-butyl-3-(2,6-dimethoxyphenyl)-6-hydroxy-5-{[4-(2-methoxypyridin-3-yl)phenyl]methyl}-3,4-dihydropyrimidin-4-one] | 0.01 to 10
CCCCc1nc(O)c(Cc2ccc(-n3cc(Cl)ccc3=O)cc2)c(=O)n1-c1c(OC)cccc1OC [Example 49, 2-butyl-5-{[4-(5-chloro-2-oxo-1,2-dihydropyridin-1-yl)phenyl]methyl}-3-(2,6-dimethoxyphenyl)-6-hydroxy-3,4-dihydropyrimidin-4-one] | 0.01 to 10
CCCCc1nc(O)c(Cc2ccc(-n3cc(C)ccc3=O)cc2)c(=O)n1-c1c(OC)cccc1OC [Example 50, 2-butyl-3-(2,6-dimethoxyphenyl)-6-hydroxy-5-{[4-(5-methyl-2-oxo-1,2-dihydropyridin-1-yl)phenyl]methyl}-3,4-dihydropyrimidin-4-one] | 0.01 to 10
COc1cccc(OC)c1-n1c(C2CCCC2)nc(O)c(Cc2ccc(-n3cc(F)ccc3=O)cc2)c1=O [Example 51, 2-cyclopentyl-3-(2,6-dimethoxyphenyl)-5-{[4-(5-fluoro-2-oxo-1,2-dihydropyridin-1-yl)phenyl]methyl}-6-hydroxy-3,4-dihydropyrimidin-4-one] | 0.01 to 10
COc1cccc(OC)c1-n1c(CCC(C)C)nc(O)c(Cc2ccc(-n3cc(F)ccc3=O)cc2)c1=O [Example 52, 3-(2,6-dimethoxyphenyl)-5-{[4-(5-fluoro-2-oxo-1,2-dihydropyridin-1-yl)phenyl]methyl}-6-hydroxy-2-(3-methylbutyl)-3,4-dihydropyrimidin-4-one] | 0.01 to 10
COc1cccc(OC)c1-n1c(CCC(C)C)nc(O)c(Cc2ccc(-n3cc(Cl)ccc3=O)cc2)c1=O [Example 53, 5-{[4-(5-chloro-2-oxo-1,2-dihydropyridin-1-yl)phenyl]methyl}-3-(2,6-dimethoxyphenyl)-6-hydroxy-2-(3-methylbutyl)-3,4-dihydropyrimidin-4-one] | 0.01 to 10
COc1cccc(OC)c1-n1c(CCC(C)C)nc(O)c(Cc2ccc(-n3cc(C)ccc3=O)cc2)c1=O [Example 54, 3-(2,6-dimethoxyphenyl)-6-hydroxy-5-{[4-(5-methyl-2-oxo-1,2-dihydropyridin-1-yl)phenyl]methyl}-2-(3-methylbutyl)-3,4-dihydropyrimidin-4-one] | 0.01 to 10

Same assay, conditions: HEK293 cells stably expressing human APJ receptor; inhibition of forskolin-mediated cAMP production; read-out: Human APJ cAMP EC50 potency range

Compound | EC50 [nM]
COc1cccc(OC)c1-n1c(-c2ccc(F)cc2)nc(O)c(Cc2ccc(-n3cc(F)ccc3=O)cc2)c1=O [Example 37, 3-(2,6-dimethoxyphenyl)-5-(4-(5-fluoro-2-oxopyridin-1(2H)-yl)benzyl)-2-(4-fluorophenyl)-6-hydroxypyrimidin-4(3H)-one] | 0.01 to 10
